In PubChem BioAssay (NCI):
Where “and” joins values, the source holds several entries; their conditions need not be identical. Equal values may be shown once.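 Following 48 hours of exposure in 96-well plates, responses at five concentrations were used to interpolate endpoints linearly. GI50 = concentration required for 50% inhibition of growth. Definition used: TGI = concentration required for complete inhibition of growth.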

Key:
Test in all cases: growth of human tumour cells (NCI), 48 h
BT-549 breast = test system: BT-549 breast
SNB-19 CNS = test system: SNB-19 CNS
NCI-H226 lung = test system: NCI-H226 lung
OVCAR-4 ovarian = test system: OVCAR-4 ovarian
HL-60(TB) leukemia = test system: HL-60(TB) leukemia
HCT-15 colon = test system: HCT-15 colon
UACC-62 melanoma = test system: UACC-62 melanoma
ACHN renal = test system: ACHN renal
SF-539 CNS = test system: SF-539 CNS
SNB-75 CNS = test system: SNB-75 CNS

Row | SMILES | TGI (BT-549 breast) | TGI (SNB-19 CNS) | TGI (NCI-H226 lung) | TGI (OVCAR-4 ovarian) | GI50 (HL-60(TB) leukemia) | TGI (HL-60(TB) leukemia) | TGI (HCT-15 colon) | TGI (UACC-62 melanoma) | TGI (ACHN renal) | TGI (SF-539 CNS) | TGI (SNB-75 CNS) | GI50 (SNB-19 CNS) | GI50 (NCI-H226 lung) | GI50 (UACC-62 melanoma) | GI50 (ACHN renal) | GI50 (SF-539 CNS) | GI50 (SNB-75 CNS) | GI50 (BT-549 breast) | GI50 (OVCAR-4 ovarian) | GI50 (HCT-15 colon)
1 | Cc1cc(C)c2c(=O)cc(-c3ccc(F)cc3)[nH]c2n1 | > 100 µM | > 100 µM | > 100 µM | 48.3 µM | 15.5 µM | 37.4 µM | > 100 µM | > 100 µM | > 100 µM | > 100 µM | > 100 µM |  |  |  |  |  |  |  |  | 
2 | OC1CCC(COC(c2ccccc2)(c2ccccc2)c2ccccc2)O1 (stereo not given) | 40.6 µM | 40 µM | 45.4 µM |  |  | 39.7 µM | 44.5 µM | 33.8 µM | 31.1 µM | 32.5 µM | 26.5 µM |  |  |  |  |  |  |  |  | 
3 | CC[C@@]1(O)C(=O)OCc2c1cc1n(c2=O)Cc2cc3c(OC)cccc3nc2-1 | > 39.8 µM | > 31.9 µM | 0.078 µM and 0.445 µM | 11.9 µM | 0.00321 µM |  | > 60 µM | 0.0456 µM and 0.106 µM |  | 0.224 µM | 2.06 µM | 0.00642 µM | 0.00806 µM | 0.00262 µM | 0.00175 µM and < 0.215 µM | 0.00654 µM | 0.00687 µM |  |  | 
4 | N#C/C(=C\c1ccc([N+](=O)[O-])cc1)n1nnc2cc(F)c(F)cc21 | 4.17 µM | 10.4 µM | 5.73 µM | 2.86 µM | 2.36 µM | 5.78 µM | 5.44 µM | 3.36 µM | 3.11 µM | 3.27 µM | 3.02 µM | 2.96 µM | 1.97 µM | 1.66 µM | 1.74 µM | 1.74 µM | 1.52 µM | 1.77 µM | 1.46 µM | 1.93 µM
5 | O=C1/C(=C\c2ccc(Cl)cc2)CN(C(=O)c2ccccc2)C/C1=C\c1ccc(Cl)cc1 | 7.17 µM | 19.3 µM | > 20.1 µM | 19.4 µM | 6.58 µM | 66.2 µM | 5.03 µM | 4.55 µM | 8.17 µM | 5.13 µM | > 71.8 µM | 3.27 µM |  | 1.86 µM | 2.73 µM | 2.15 µM | 3.77 µM | 2.89 µM | 2.54 µM | 1.86 µM
6 | CCOC(=O)Nc1ccc2c3c(cccc13)-c1ccccc1-2 | > 100 µM | > 100 µM | > 100 µM | > 100 µM |  |  | > 100 µM | > 100 µM | > 100 µM | > 100 µM | > 100 µM | 23.5 µM | > 100 µM | 3.71 µM | 9.73 µM | 5.65 µM | 8.97 µM | > 100 µM | > 100 µM | 4.32 µM
7 | C#CCOCCCC(=O)O | > 100 µM | > 100 µM | > 100 µM | > 100 µM |  | > 100 µM | > 100 µM | > 100 µM | > 100 µM | > 100 µM | > 100 µM |  |  |  |  |  |  |  |  | 
8 | CCOC(=O)Nc1nc(-c2ccccc2)c(C)s1 | > 100 µM | > 100 µM | > 100 µM | > 100 µM |  | 90.5 µM | > 100 µM | > 100 µM | > 100 µM | > 100 µM | > 100 µM |  |  |  |  |  |  |  |  | 
9 | O=C(NCCNc1nccc(-c2c(-c3ccc(F)cc3)nc3sccn23)n1)Nc1cccc(C(F)(F)F)c1 | 30.5 µM | 36.8 µM | 10.6 µM | 43 µM | 11.5 µM | > 100 µM | 47.9 µM | 17 µM | 36.7 µM | 26.7 µM | 21.7 µM | 7.93 µM | 2.38 µM | 4.75 µM | 4.14 µM | 11.5 µM | 7.13 µM | 13.2 µM | 4.74 µM | 4.22 µM
10 | Nc1ncnc2occ(-c3ccc(NC(=O)Nc4cc(C(F)(F)F)ccc4F)cc3)c12 | 17.4 µM and 9.93 µM | 23.3 µM and 19.5 µM | 18.7 µM and 7.01 µM | 17.1 µM and 14.6 µM | 6.88 µM and 6.16 µM | 16 µM and 14.7 µM | 21.7 µM and 13.5 µM | 9.76 µM and 5.8 µM | 18.8 µM and 16.4 µM | 8.79 µM and 6.45 µM | 9.56 µM and 10.3 µM | 8.29 µM and 5.71 µM | 0.717 µM and 0.929 µM | 4.29 µM and 2.33 µM | 4.17 µM and 2.9 µM | 2.78 µM and 1.09 µM | 3.87 µM and 3.93 µM | 6.83 µM and 3.42 µM | 4.2 µM and 2.36 µM | 6.31 µM and 3.97 µM
11 | COc1cc2c3c(n(CCCNC(C)(C)CO)c(=O)c2cc1OC)-c1cc2c(cc1C3=O)OCO2 | 39.2 µM | > 61.2 µM | 8.33 µM | 42.1 µM | 0.539 µM | 4.16 µM | 16.6 µM | 5.23 µM | 14.3 µM | 31.3 µM | 44 µM | 1.83 µM | 0.392 µM | 0.198 µM | 0.331 µM | 0.356 µM | 2.58 µM | 12.9 µM | 11.3 µM | 2.04 µM
12 | CSc1nc(SC)c2c(C)cn(Cc3ccccc3)c2n1 | > 100 µM | > 100 µM | > 100 µM | > 100 µM |  | > 100 µM | > 100 µM | > 100 µM | > 100 µM | > 100 µM | > 100 µM |  |  |  |  |  |  |  |  | 
13 | O=C(O)c1cc(C(=O)C(=O)c2cc(C(=O)O)c(O)c3ccccc23)c2ccccc2c1O | > 100 µM | > 100 µM | > 100 µM | > 100 µM |  |  | > 100 µM | > 100 µM | > 100 µM | > 100 µM | > 100 µM |  |  |  |  |  |  |  |  | 
14 | COc1cc2cc(Oc3ccc(NC(=O)Nc4ccc(F)c(C(F)(F)F)c4)cc3)c(C)nc2cc1OCCN1CCOCC1 | 8.46 µM | 19.3 µM | 13.2 µM | 5.23 µM | 2.38 µM | 6.14 µM | 4.19 µM | 4.24 µM | 11.4 µM | 3.44 µM | 7.45 µM | 3.96 µM | 2.55 µM | 1.36 µM | 2.3 µM | 1.77 µM | 1.96 µM | 2.44 µM | 0.706 µM | 1.73 µM
15 | Cc1cc(S(=O)(=O)Nc2n[nH]c(-c3ccc(Cl)cc3)c2C#N)c(S)cc1Cl | > 100 µM | > 100 µM | > 100 µM | > 100 µM | > 100 µM | > 100 µM | > 100 µM | > 100 µM | > 100 µM | > 100 µM | > 100 µM | > 100 µM | > 100 µM | > 100 µM | > 100 µM | > 100 µM | > 100 µM | > 100 µM | > 100 µM | > 100 µM
16 | CC(=O)N[C@@H](Cc1ccc(OP(=O)(O)O)cc1)C(=O)N[C@H]1CCC(=O)N2CCC[C@@H](C(=O)NCc3cccc4ccccc34)N2C1=O | > 25 µM | > 25 µM | > 25 µM | > 25 µM | > 25 µM | > 25 µM | > 25 µM | > 25 µM | > 25 µM | > 25 µM | > 25 µM | > 25 µM | > 25 µM | > 25 µM | > 25 µM | > 25 µM | > 25 µM | > 25 µM | > 25 µM | > 25 µM
17 | COC(=O)CC12CC(NC(=O)c3csc([C@@H](C[C@H](C(C)C)N(C)C(=O)[C@@H](NC(=O)[C@H]4CCCCN4C)C(C)C)OC(C)=O)n3)(C1)C2 | 0.246 µM and 0.253 µM | > 33.3 µM |  | > 33.3 µM | 0.00282 µM and 0.00685 µM | 0.0111 µM and 0.0181 µM | > 33.3 µM | > 33.3 µM | > 33.3 µM | 0.0198 µM and 0.0269 µM |  | 0.0031 µM and 0.0114 µM | 0.00492 µM and 0.0217 µM | 0.00325 µM and 0.00622 µM | 0.026 µM | 0.00289 µM and 0.00759 µM | 0.00265 µM | 0.00575 µM and 0.022 µM | 0.455 µM and 0.326 µM | 0.0183 µM and 0.0254 µM
18 | CN(CCNc1ccc(C(=N)N)cc1)c1ccc(C(=N)N)cc1 | 38.4 µM | > 100 µM | > 100 µM | > 100 µM | 49.4 µM | > 100 µM | > 100 µM | > 100 µM | > 100 µM | > 100 µM | > 100 µM | 27.8 µM | 3.81 µM | 32.6 µM | > 100 µM | 35.1 µM | 27.6 µM | 13.8 µM | 66 µM | 31.2 µM
19 | COc1ccc(C(=O)O[C@@H]2CCN3CC[C@H](C)[C@H]23)cc1 | > 100 µM | > 100 µM | > 100 µM |  |  | > 100 µM | > 100 µM | > 100 µM | > 100 µM | > 100 µM | > 100 µM |  |  |  |  |  |  |  |  | 
20 | CCOC(=O)c1c2c(n(Cc3ccccc3)c1C)-c1nc[nH]c1C(=O)C2=O | 31.1 µM | 30.7 µM | 47.2 µM | 26.3 µM | 2.61 µM | 10.3 µM | 29.1 µM |  | 27.9 µM | 31.9 µM | 16.2 µM | 17 µM | 20.9 µM |  | 14.8 µM | 17.7 µM | 4.13 µM | 17 µM | 13.5 µM | 14.8 µM
21 | ClCCN(CCCl)c1ccc(OCc2ccccc2)cc1 | 22.6 µM | > 100 µM | 28 µM | 55.4 µM | 1.84 µM | 23.7 µM | 84.1 µM |  | > 100 µM | 7.44 µM | 12 µM | 6.15 µM | 10.3 µM |  | 2.1 µM | 2.03 µM | 1.81 µM | 2.5 µM | 12 µM | 5.11 µM
22 | COc1ncnn2ccc(-c3cnc4nc(C)n(Cc5nnc(C(C)F)o5)c4c3)c12 (stereo not given) | 1.61 µM | > 100 µM | 0.949 µM | 0.995 µM | 0.367 µM |  |  |  | > 100 µM | 0.674 µM | 1.75 µM | 0.198 µM | 0.156 µM |  | 0.24 µM | 0.218 µM | 0.191 µM | 0.0585 µM | 0.278 µM | 0.199 µM
